Measurements published in patent publication US20260240869A1, “ANTIPSEUDOMONAL FUSIDIC ACID COMPOUNDS” (priority 2022, published 2026).
Values after ≈ are worked out from the molar mass of the structure shown. Where two headings read alike, the source gives them in different places.

What was measured:
P. aeruginosa PAΔ6 [1] = test: MIC, efflux pump knockout strain PAΔ6; type: cell-based, Pseudomonas aeruginosa; details: for Fold change: MIC ratio WT PAO1 / PAΔ6 (Table 2); for Fold change (MIC): WT MIC / PAΔ6 MIC (Table 7)
Description: (§1) Antimicrobial Susceptibility Tests. Susceptibility testing was performed in biological triplicate, using the microdilution broth method as outlined by the Clinical and Laboratory Standards Institute. Bacteria were cultured with cation-adjusted Meuller-Hinton broth (Sigma-Aldrich; catalogue number: 90922) or Luria-Bertani (LB) broth (Lennox) in round-bottom 96-well plates (Corning; catalogue number: 3788).

P. aeruginosa PAO1 [2] = test: MIC, CLSI broth microdilution, P. aeruginosa PAO1; type: cell-based, Pseudomonas aeruginosa; details: for MIC: Pseudomonas aeruginosa
Description: as §1

P. aeruginosa PAΔ6 [3] = test: LC-MS/MS whole-cell accumulation assay, PAΔ6; type: cell-based, Pseudomonas aeruginosa; details: for change of accumulation in efflux pump knockout PAΔ6 versus WT PAO1: FIG. 1c; for Fold change (Accum): PAΔ6 Accum / WT Accum (Table 7); for PAΔ6 Accum: ± s.e.m. (Table 7)
Description: (§2) Accumulation Assay. The accumulation assay was performed in triplicate in batches of ten samples, with each batch containing tetracycline or ciprofloxacin as a positive control. P. aeruginosa PAO1, PAO1 A6, PA14, PA14 A40, and PA1280, and E. coli MG1655 were used in these experiments. For each replicate, 2.5 mL (E. coli) or 5 mL (P. aeruginosa) of an overnight culture was diluted into 250 mL of fresh Luria-Bertani broth (Lennox) or Tryptic Soy Broth (TSB) and grown at 37° C. with shaking to an optical density (OD600) of 0.55-0.60. The bacteria were pelleted at 3220 r.c.f. for 10 min at 4° C., and the supernatant was discarded. The pellets were resuspended in 40 mL of phosphate buffered saline (PBS) and pelleted as before, and the supernatant was discarded. The pellets were resuspended in 8.8 mL of fresh PBS and aliquoted into ten, 1.5 mL Eppendorf tubes (875 μL each). The number of colony-forming units (CFUs) was determined by a calibration curve. The samples were equilibrated at 37° C. with shaking for 5 min; compound was added (final concentration=50 μM), and then the samples were incubated at 37° C. with shaking for either 10 min. These time points were short enough to minimize metabolic and growth changes (no changes in OD600 or CFU count observed). After incubation, 800 μL of the cultures was carefully layered on 700 μL of silicone oil (9:1 AR20/Sigma High Temperature, cooled to −78° C.). Bacteria were pelleted through the oil by centrifuging at 13 000 r.c.f. for 2 min at room temperature (with the supernatant remaining above the oil); the supernatant and oil were then removed by pipetting. To lyse the samples, each pellet was dissolved in […] of water, and then, they were subjected to three (E. coli) or four (P. aeruginosa) freeze-thaw cycles of 3 min in liquid nitrogen followed by 3 min in a water bath at 65° C. P. aeruginosa samples were then treated with 50 µM DNase and RNase and incubated at 37° C. for 15 minutes. The lysates were pelleted at 13 000 r.c.f. for 2 min at room temperature, and the supernatant was collected ([…]). The debris was resuspended in 100 μL of methanol and pelleted as before. The supernatants were removed and combined with the previous supernatants collected. Finally, the remaining debris was removed by centrifuging at 20 000 r.c.f. for 10 min at room temperature. Supernatants were analyzed by LC-MS/MS.
(§3) Samples were analyzed with the 5500 QTRAP LC/MS/MS system (AB Sciex) with a 1200 series HPLC system (Agilent Technologies) including a degasser, an autosampler, and a binary pump. Liquid chromatography separation was performed on an Agilent SB-Aq column (4.6×50 mm, 5 μm) (Agilent Technologies) with mobile phase A (0.1% formic acid in water) and mobile phase B (0.1% formic acid in acetonitrile). The flow rate was 0.3 mL/min. The linear gradient was as follows: 0-3 min, 100% mobile phase A; 10-15 min, 2% mobile phase A; 15.5-21 min, 100% mobile phase A. The autosampler was set at 5° C. The injection volume was 15 μL. Mass spectra were acquired with both positive electrospray ionization at the ion spray voltage of 5500 V and negative electrospray ionization at the ion spray voltage of −4500 V. The source temperature was 450° C. The curtain gas, ion source gas 1, and ion source gas 2 were 33, 50, and 65, respectively. Multiple reaction monitoring was used to quantify the metabolites. Power analysis was not used to determine the number of replicates. Error bars represent the standard error of the mean of three biological replicates. The statistical significance of the accumulation was determined using a two sample Welch's t test (one-tailed test, assuming unequal variance) relative to the negative controls. All compounds evaluated in the biological assays were >95% pure.

P. aeruginosa PAO1 [4] = test: LC-MS/MS whole-cell accumulation assay, P. aeruginosa PAO1; type: cell-based, Pseudomonas aeruginosa; details: for WT Accum: WT PAO1, ± s.e.m. (Table 7); for PA accum.: P. aeruginosa, value ± s.e.m. (Chart 2)
Description: as §2, §3
MBN assay. Assays measuring permeabilization by polymyxin B nonapeptide (PMBN) were performed as above, with the addition of 8 μg/mL PMBN immediately before the compound of interest was added.

E. coli MG1655 = test: LC-MS/MS whole-cell accumulation assay, E. coli MG1655; type: cell-based; details: E. coli, value ± s.e.m. (Chart 2)
Description: as §2, §3

[5] = efflux pump KO strain, MH or LB broth (Table 2)
[6] = WT P. aeruginosa PAO1, MH or LB broth (Table 7), read-out: WT MIC

O=C(N[C@H](CO)[C@H](O)c1ccc([N+](=O)[O-])cc1)C(Cl)Cl [Chloramphenicol]
PAΔ6 MIC (P. aeruginosa PAΔ6 [1]; MH or LB broth (Table 7)): 4 mg/L | Fold change (P. aeruginosa PAΔ6 [1]): >128 | Fold change (MIC) (P. aeruginosa PAΔ6 [1]): >128 | PAΔ6 MIC (P. aeruginosa PAΔ6 [1]; [5]): 4 mg/L | MIC (P. aeruginosa PAO1 [2]; WT P. aeruginosa PAO1, MH or LB broth (Table 2), read-out: WT MIC): > 512 mg/L | WT MIC (P. aeruginosa PAO1 [2]; WT P. aeruginosa PAO1, MH or LB broth (Table 7)): >512 mg/L | change of accumulation in efflux pump knockout PAΔ6 versus WT PAO1 (P. aeruginosa PAΔ6 [3]): increase in accumulation | Fold change (Accum) (P. aeruginosa PAΔ6 [3]): 4.4 | PAΔ6 Accum (P. aeruginosa PAΔ6 [3]): 537 ± 19 nmol/10^12 CFUs | WT Accum (P. aeruginosa PAO1 [4]): 122 ± 23 nmol/10^12 CFUs

N[C@H]1CO[C@H]2[C@@H]1OC[C@H]2OS(=O)(=O)c1ccc(-c2ccccc2)cc1 [Compound 48]
PA accum. (P. aeruginosa PAO1 [4]): 282 ± 37 nmol/10^12 CFUs | EC accum. (E. coli MG1655): 1965 ± 291 nmol/10^12 CFUs

N[C@H]1CO[C@H]2[C@@H]1OC[C@H]2OS(=O)(=O)c1ccc(Br)cc1 [Compound 49]
PA accum. (P. aeruginosa PAO1 [4]): 217 ± 3 nmol/10^12 CFUs | EC accum. (E. coli MG1655): 1647 ± 108 nmol/10^12 CFUs

Cc1ccc(S(=O)(=O)O[C@@H]2CO[C@H]3[C@@H]2OC[C@@H]3N)cc1 [Compound 50]
PA accum. (P. aeruginosa PAO1 [4]): 163 ± 39 nmol/10^12 CFUs | EC accum. (E. coli MG1655): 877 ± 29 nmol/10^12 CFUs

NC1CCCc2c1cncc2N1Cc2cc(Cl)ccc2C1=O (stereo not shown) [Compound 51]
PA accum. (P. aeruginosa PAO1 [4]): 222 ± 11 nmol/10^12 CFUs | EC accum. (E. coli MG1655): 500 ± 10 nmol/10^12 CFUs

N#Cc1ccc(-c2cncc3c2CCCC3N)cc1 (stereo not shown) [Compound 52]
PA accum. (P. aeruginosa PAO1 [4]): 161 ± 12 nmol/10^12 CFUs | EC accum. (E. coli MG1655): 929 ± 39 nmol/10^12 CFUs

CN1C(=O)CCc2cc(-c3cncc4c3CCC[C@H]4N)ccc21 [Compound 53]
PA accum. (P. aeruginosa PAO1 [4]): 282 ± 37 nmol/10^12 CFUs | EC accum. (E. coli MG1655): 437 ± 28 nmol/10^12 CFUs

NCCCCCCNS(=O)(=O)c1cccc2ccccc12 [Compound 54]
PA accum. (P. aeruginosa PAO1 [4]): 399 ± 63 nmol/10^12 CFUs | EC accum. (E. coli MG1655): 108 ± 17 nmol/10^12 CFUs

Cn1cc(C2=C(c3c4n(c5ccccc35)CC[C@H](CN)C4)C(=O)NC2=O)c2ccccc21 [Compound 55]
PA accum. (P. aeruginosa PAO1 [4]): 1193 ± 27 nmol/10^12 CFUs | EC accum. (E. coli MG1655): 17 ± 7 nmol/10^12 CFUs

Cc1ccc(C(=O)N(CCCN)[C@@H](c2nc3cc(Cl)ccc3c(=O)n2Cc2ccccc2)C(C)C)cc1 [Compound 56]
PA accum. (P. aeruginosa PAO1 [4]): 658 ± 113 nmol/10^12 CFUs | EC accum. (E. coli MG1655): 244 ± 31 nmol/10^12 CFUs

CC(=O)O[C@H]1C[C@@]2(C)[C@@H](C[C@@H](O)[C@H]3[C@@]4(C)CC[C@@H](O)[C@@H](C)[C@@H]4CC[C@@]32C)/C1=C(\CCC=C(C)C)C(=O)NCCCNCCCNCCCN [FA polyamine]
antibacterial activity (in words) (P. aeruginosa PAO1 [2]; Chart 6, strain not given): no longer has potent antibacterial activity | increase in accumulation relative to FA (P. aeruginosa PAO1 [4]; text b129): 30 -fold

Cc1cc(NS(=O)(=O)c2ccc(N)cc2)no1 [Sulfamethoxazole]
PAΔ6 MIC (P. aeruginosa PAΔ6 [1]; MH or LB broth (Table 7)): 4 mg/L | Fold change (MIC) (P. aeruginosa PAΔ6 [1]): >16 | MIC (P. aeruginosa PAO1 [2]; [6]): > 64 mg/L | Fold change (Accum) (P. aeruginosa PAΔ6 [3]): 4.2 | PAΔ6 Accum (P. aeruginosa PAΔ6 [3]): 420 ± 15 nmol/10^12 CFUs | WT Accum (P. aeruginosa PAO1 [4]): 101 ± 26 nmol/10^12 CFUs

COc1cc(Cc2cnc(N)nc2N)cc(OC)c1OC [Trimethoprim]
PAΔ6 MIC (P. aeruginosa PAΔ6 [1]; MH or LB broth (Table 7)): 2 mg/L | Fold change (MIC) (P. aeruginosa PAΔ6 [1]): >256 | MIC (P. aeruginosa PAO1 [2]; [6]): > 512 mg/L | Fold change (Accum) (P. aeruginosa PAΔ6 [3]): 2.6 | PAΔ6 Accum (P. aeruginosa PAΔ6 [3]): 356 ± 28 nmol/10^12 CFUs | WT Accum (P. aeruginosa PAO1 [4]): 136 ± 11 nmol/10^12 CFUs

C=C[C@]1(C)C[C@@H](OC(=O)CSC(C)(C)CNC(=O)[C@H](N)C(C)C)[C@]2(C)[C@H](C)CC[C@]3(CCC(=O)[C@H]32)[C@@H](C)[C@@H]1O [Valnemulin]
Fold change (P. aeruginosa PAΔ6 [1]): 2048 | PAΔ6 MIC (P. aeruginosa PAΔ6 [1]; [5]): 0.125 mg/L | MIC (P. aeruginosa PAO1 [2]; PAO1, read-out: PAO1 MIC): 256 mg/L (≈ 453 µM) | MIC (P. aeruginosa PAO1 [2]; PAO1, read-out: WT MIC): 256 mg/L (≈ 453 µM) | PAO1 + PMBN MIC (P. aeruginosa PAO1 [2]; co-treatment of 8 μg/mL of PMBN, MH broth): 1 mg/L | change of accumulation in efflux pump knockout PAΔ6 versus WT PAO1 (P. aeruginosa PAΔ6 [3]): increase in accumulation | change of accumulation upon membrane permeabilization (P. aeruginosa PAO1 [4]; treatment with PMBN, FIG. 1b): significant increase in accumulation
